Results as given in patent publication US7270965B2, “Assays to screen for compounds that bind the dorsal root receptor” (AstraZeneca AB, priority 2000, dated 2007).

Tests used:
Assay type in all cases: cell-based
rat DRR = target: T1, rat DRR (Rattus norvegicus, UniProt Q8R4G1); test: FLIPR calcium mobilization assay (Fluo-3), HEK-293 cells expressing rat DRR
T1 construct: expressed in transfected cells
T1 sequence (Q8R4G1 1-323): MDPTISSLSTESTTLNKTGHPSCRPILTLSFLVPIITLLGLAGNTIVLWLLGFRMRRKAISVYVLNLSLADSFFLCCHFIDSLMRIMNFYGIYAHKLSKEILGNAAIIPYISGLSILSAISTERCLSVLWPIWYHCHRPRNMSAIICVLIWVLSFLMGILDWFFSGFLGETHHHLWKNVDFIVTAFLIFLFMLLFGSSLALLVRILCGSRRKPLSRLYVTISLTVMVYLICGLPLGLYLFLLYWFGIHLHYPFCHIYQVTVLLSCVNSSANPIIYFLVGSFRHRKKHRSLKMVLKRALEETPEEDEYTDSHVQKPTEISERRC
Protocol: (§1) REK-293 cells were transfected with a mammalian expression construct coding for the rat and human DRRs (pcDNA 3.0 vector, Invitrogen) using the Superfect reagent (Qiagen). A stable receptor pool of DRR was developed by applying a selection marker (G418, 0.9 mg/ml) and the cells were maintained in this selection medium. The presence of mRNA specific for clone DRR was assessed by Northern blot analysis and by the reverse transcriptase polymerase chain reaction (RT-PCR).
(§2) In order to identify the ligand of clone rat and human DRRs, a collection of peptide and non-peptide ligands was obtained from commercial sources (Sigma, CalBiochem, American Peptide Company, Bachem, RBI, Phoenix). The compounds were dissolved in water/DMSO at 3 μM and placed in 96 well microplates. A total of 1000 compounds (peptides and non-peptides) were prepared and tested.
(§3) A functional assay was performed with FLIPR (Fluorescent Imaging Plate Reader, Molecular Devices) using the fluorescent calcium indicator Fluo-3 (Molecular Probes) on a 96 well platform. BEK-293 cells, either expressing the receptor or wild type cells, were loaded with Fluo-3 as follows. […] The cells were analyzed using the FLIPR system to measure the mobilization of intracellular calcium in response to different compounds.

human DRR = test: FLIPR calcium mobilization assay (Fluo-3), HEK-293 cells expressing human DRR
Protocol: as §1, §2, §3

[1] = tested on: parental HEK-293 cells (non-transfected); test: FLIPR calcium mobilization assay (Fluo-3), parental (non-transfected) HEK-293 cells; settings: wild type / parental HEK-293 cells, compounds dissolved at 3 μM
Protocol: as §2
A functional assay was performed with FLIPR (Fluorescent Imaging Plate Reader, Molecular Devices) using the fluorescent calcium indicator Fluo-3 (Molecular Probes) on a 96 well platform. BEK-293 cells, either expressing the receptor or wild type cells, were loaded with Fluo-3 as follows. Stable HEK-293 clones expressing rat and human DRR or parental cells were plated at a density of 10,000 cells/well in a 96 well plate. On the day of the experiment, the DRR cells were loaded with fluorescent solution (Dulbecco's modified medium with 10% fetal bovine serum containing 4 μM Fluo-3 and 20% pluronic acid). The cells were incubated at 37 C for one hour in a humidified chamber. Following the incubation step, cells were washed five times in Hanks' with 20 mM Hepes and 0.1% BSA (pH 7.4). The cells were analyzed using the FLIPR system to measure the mobilization of intracellular calcium in response to different compounds. […]

## YGGFMRRVGRPEWWMDYOKRYG-OH [BAM-22P]
Rat DRR; HEK-293 cells expressing clone rat DRR, FLIPR, Fluo-3, compounds dissolved at 3 μM
  calcium response (mobilization of intracellular calcium): consistently elicited signals
Rat DRR; cells transfected with rat DRR
  dose-response relationship of calcium response: observation of a dose-response relationship
Human DRR; HEK-293 cells expressing clone human DRR, FLIPR, Fluo-3, compounds dissolved at 3 μM
  calcium response (mobilization of intracellular calcium): consistently elicited signals
Human DRR; cells transfected with human DRR
  dose-response relationship of calcium response: observation of a dose-response relationship
[1]
  calcium response (mobilization of intracellular calcium): not the wild type cells
